Here are results for one substance from PMC11928319 (Nature Plants, 2025).

The subject of one test is EFR. Description: Expression of EFR normalized to UBQ5 in roots (RT–qPCR) and pEFR::NLS–3*mVenus reporter. The class given is in vivo, Arabidopsis thaliana. To be noted: timepoint 1h, single samples. The procedure:
Axenic 14-day-old seedlings (see ‘Agar-based cultivation of axenic plants and co-cultivation with bacteria, bacterial supernatants and elicitors’) were submerged in 12 ml of 10 mM MgSO4 supplemented with 1 µM elicitor or bacteria, which were directly harvested from 0.5× TSB plates and resuspended in 10 mM MgSO4. Bacterial concentration was adjusted to OD600 = 1.5, if not indicated differently. For a heat-killed bacterial inoculum, resuspended bacteria were incubated in boiling water for 30 min. […] For co-exposure to flg22 and AtPep1, seedlings were submerged as described for 1 h, residual liquid was removed and the plants were incubated in a cultivation chamber for 4 h prior to harvesting.
For reverse transcription quantitative PCR (RT–qPCR), roots of eight to ten plants grown on one square plate were pooled for one sample. Frozen roots were homogenized using a TissueLyser II (QIAGEN, 2 × 29 pps for 40 s) with pre-cooled adaptors. RNA was extracted using the Plant RNA Kit (my-Budget) according to the user manual and eluted in 35 µl of elution buffer. RNA concentrations were measured using a spectrometer (Nanodrop OneC Microvolume UV-Vis Spectrophotometer). Complementary DNA was synthesized from 300–500 ng of RNA using the RevertAid H Minus First Strand cDNA Synthesis Kit (ThermoScientific) in a 20-µl reaction according to the user manual. In brief, 1 µl of oligo(dT)18 primer was mixed with RNA in a final volume of 12 µl and incubated at 65 °C for 5 min. Afterwards, 4 µl of 5× Reaction buffer, 2 µl of 10 mM dNTPs, 1 µl of RiboLock RNase Inhibitor (20 U µl^−1) and 1 µl of RevertAid H Minus M-MuLV Reverse Transcriptase (200 U µl^−1) were added, and the reaction was incubated at 42 °C for 60 min followed by heat inactivation at 70 °C for 5 min. cDNA was diluted 1:10 prior to qPCR using the iQ SYBR Green Supermix (Bio-Rad). […]
(In qPCR the cycle at which signal appears reflects the starting amount.)

Test [1] relates to Arabidopsis wild type and efr mutant plants. Kind of test: elf18-induced shoot growth inhibition, shoot weight. As to conditions: Arabidopsis Col-0, 1 µM, 2 weeks. The class given is in vivo, Arabidopsis thaliana.

Where “and” joins values, the source holds several entries; their conditions need not be identical. Equal entries are not always repeated.

Consider Ac-SKEKFERTKPHVNVGTIG [elf18], for which the “EFR fold_change” value is 1.977 and 2.517 and 1.4157 and 1.558 in the test with EFR (Replicate I); 1.051 and 1.166 and 0.9721 and 1.1066 with EFR (Replicate II); 1.492 and 1.557 and 2.228 and 1.3126 in the test with EFR (Replicate III). In addition, in test [1], the “shoot growth (shoot weight) upon peptide treatment” value is given as “Shoot growth inhibition”.
